Data on two molecules can be found in publication PMC12486385 (Virus Evolution, 2025).

The nature of series [1]: Peptide precipitation / solubility under assay conditions. It is filed as physicochemical.
The subject of series [2] is NTRs (IMP⍺1/2/3/5/7 and IMPβ1/2/3). As to the kind of experiment: Fluorescence polarization. Particulars: FP; poor peptide solubility. It is filed as binding, human; mouse (IMP⍺2).
Series [3] concerns the target human importin beta 1 (hIMPβ1) (human, UniProt Q14974 1-876). As to the kind of experiment: fluorescence polarisation. On the technique in general: Polarisation of emitted light reports the rotation of a fluorescent probe.

No end group written: not given here.

Sequence of human importin beta 1 (hIMPβ1) (Q14974 whole entry): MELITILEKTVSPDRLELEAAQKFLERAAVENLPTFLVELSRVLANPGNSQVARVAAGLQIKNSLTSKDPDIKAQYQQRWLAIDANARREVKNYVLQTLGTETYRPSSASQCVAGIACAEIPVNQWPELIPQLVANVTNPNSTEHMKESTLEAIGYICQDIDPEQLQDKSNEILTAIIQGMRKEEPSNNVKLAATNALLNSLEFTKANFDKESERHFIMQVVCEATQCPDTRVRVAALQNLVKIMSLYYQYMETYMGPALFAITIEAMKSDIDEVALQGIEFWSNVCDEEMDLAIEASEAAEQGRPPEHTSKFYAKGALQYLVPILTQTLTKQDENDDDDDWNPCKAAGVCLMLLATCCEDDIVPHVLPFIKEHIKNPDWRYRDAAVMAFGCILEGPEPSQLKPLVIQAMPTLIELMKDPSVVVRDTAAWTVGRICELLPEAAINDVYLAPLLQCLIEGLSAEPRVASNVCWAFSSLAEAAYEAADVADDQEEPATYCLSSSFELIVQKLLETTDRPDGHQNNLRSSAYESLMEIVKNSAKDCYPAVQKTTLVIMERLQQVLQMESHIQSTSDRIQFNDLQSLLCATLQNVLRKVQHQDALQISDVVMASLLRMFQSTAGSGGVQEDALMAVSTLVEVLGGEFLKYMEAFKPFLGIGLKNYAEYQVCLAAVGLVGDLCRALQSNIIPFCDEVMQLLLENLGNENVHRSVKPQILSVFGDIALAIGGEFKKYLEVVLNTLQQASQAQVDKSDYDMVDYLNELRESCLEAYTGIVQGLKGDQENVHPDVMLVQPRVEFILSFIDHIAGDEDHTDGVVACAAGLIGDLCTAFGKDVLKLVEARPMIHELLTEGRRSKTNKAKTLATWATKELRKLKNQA

Consider “27-RRWRRRPRRRRRPYRRRPYRRYGRRRKVRRR-57 [ORF1 NLSn]”, for which the precipitation result in series [1] (EMSA conditions, 10 μM FITC-peptide, TB buffer) was “consistently precipitated, suggesting poor solubility under assay conditions”. The “solubility (in words)” value in series [1] (FP conditions, 10 nM FITC-peptide, SEC buffer pH 8) was “poor peptide solubility”. For the same molecule, the “interaction with NTRs (in words)” value in series [2] is on record as “no interaction could be detected”.
For the molecule YGRRRKVRRR (also: FITC-tagged, end not given here) [ORF1 NLSn_B peptide (TTDoV ORF1 residues 48-57, predicted monopartite cNLS)], the binding result in series [3] is listed as “binds”.
